{
  "source": "patent US9604973B2",
  "about": "“Anti-cancer polyketide compounds” (priority 2012, dated 2017)",
  "key": {"[1]": {"test_system": "HCT-116 cell line", "experiment": "MTT cell proliferation assay", "type": "cell-based", "conditions": "HCT-116 cell line; for IC50: MTT", "excerpt": "Structure Activity Relationships (SAR) studies for 1SS, […], 1RS, and […]. It has been reported that ablation of C3, C6 and C7 substituents is detrimental to activity. […] (See FIG. 4). Additional activity was also observed when C17 was left in its natural R configuration."}, "[2]": {"test_system": "CLL cells", "experiment": "Flow cytometry, % specific induced apoptosis (DiOC6/PI) in primary CLL cells", "type": "cell-based, human", "conditions": "Homo sapiens, CLL cell; CLL cells from patient with del (17p) and Tp53 mutation, 48 hours", "method": "FIG. 20A-20C: FD-895 and PLAD induce apoptosis in CLL cells but not in normal lymphocytes with a TP53 independent activity: Primary leukemia B cells from CLL (FIG. 20A) patient with del (17p) and Tp53 mutation, (FIG. 20B) patient with wild type p53 and sensitive to F-Ara-A and (FIG. 20C) normal lymphocytes from healthy donor were incubated with FD-895, PLAD and F-Ara-A (0, 10, 100, 1000 10,000 nM) for 48 hours.\nFIG. 21: FD-895 and PLAD induce apoptosis in CLL cells not ONLY independently of Tp53 but also independently of SF3B1 mutational status: Primary leukemia B cells from CLL patient with SF3B1 wild, SF3B1 mutation, 17p DEL and normal B and T lymphocytes from healthy donor were incubated with FD-895 and PLAD with 100 nM for 48 hours. After incubation, the samples were harvested and % SIA was measured by flow cytometry as described above. […] Each dots represents number of CLL patient sample and normal B or T cells.\nPeripheral blood mononuclear cells (PBMC) from patients with CLL were obtained from the CLL Research Consortium (CRC) tissue bank. The blood samples were collected after obtaining a written informed consent from the patients under a protocol approved by the institutional review board of The University of California, San Diego. All patients met criteria for CLL.^1 CLL B cells and PBMCs were separated from heparinized venous blood of the B-CLL patients by density gradient centrifugation using Ficoll-Hypaque (GE healthcare) as described earlier.^2 The samples that were used had more than 95% positive cells for CD19 and CD5+, as assessed by flow cytometry. CLL B cells were maintained in RPMI 1640 medium supplemented with 10% FBS, 2 mM L-glutamine, and 100 U/mL of penicillin and 100 μg/mL of streptomycin at 37° C. in an atmosphere of 5% CO2.\nApoptotic and viable cells were discriminated via flow cytometry of cells stained with 3,3′ dihexyloxacarbocyanine iodide (DiOC6) (Molecular Probes, Eugene, Oreg., USA) and propidium iodine (Sigma, St Louis, Mo., USA), as described.^3 Using this method viable cells exclude PI and stain brightly positive for DiOC6."}, "[3]": {"test_system": "GAPDH", "experiment": "RT-PCR of spliced and unspliced mRNA (intron retention) in CLL cells, housekeeping gene", "type": "cell-based, human", "conditions": "4 hours, same concentrations", "method": "(§1) FIG. 23: FD-895 and PLAD induced inhibition of splicing in CLL: RT-PCR for analysis of spliced and unspliced mRNAs. CLL cells treated with FD-895, PLAD (10, 100 nM), chemotherapeutic agent like bendamustine (33, 100 μM) and F-Ara-A (3, 10, 33 μM) for 4 hours. RT-PCR for DNAJB1 was performed with primers spanning two exons; products were analyzed on ethidium bromide-stained agarose gels (2%) to visualize the correct size of the unspliced mRNAs. […] The exon structure of DNAJB1 gene is indicated. G, human genomic DNA was used as a control; U, unspliced mRNA; S, spliced mRNA.\n(§2) CLL cells were treated with 10 and 100 nM of FD-895 and PLAD, 33 and 100 μM of bendamustine and 3, 10, and 33 μM of F-Ara-A for 4 h. Normal B and CLL cells were treated with 100 nM of FD-895 and PLAD and 10 μM of F-Ara-A for 15 minutes, 30 minutes, 1, 2 and 4 h. Total RNA was extracted using mirVana™ miRNA isolation kit (Ambion Life Technology, USA). After DNase treatment, 200 ng total RNA was reverse-transcribed using a SuperScript™ III first-strand synthesis system (Invitrogen). PCR was performed on 10 ng of the obtained cDNA (or human genomic DNA as a control) in 25 μl of reaction mixture containing Plantinum® PCR SuperMix High-fidelity (Invitrogen Life Technology, USA), and 0.1 μM of each primer of the appropriate pair.\n(§3) PCR conditions were 94° C. for 3 min; 35 cycles of 94° C. for 30 s, 60° C. for 30 s, and 72° C. for 1 min; followed by 72° C. for 5 min. PCR products were separated on a 2% agarose gel and stained with ethidium bromide."}, "[4]": {"test_system": "DNAJB1", "experiment": "RT-PCR of spliced and unspliced mRNA (intron retention) in CLL cells", "type": "cell-based, human", "conditions": "4 hours, FD-895, PLAD 10, 100 nM, bendamustine 33, 100 μM, F-Ara-A 3, 10, 33 μM", "method": "as §1, §2, §3"}},
  "data": [
    {"smiles": "CC[C@H](OC)[C@@H](C)[C@H]1O[C@@H]1[C@H](O)[C@@H](C)/C=C/C=C(\\C)[C@H]1OC(=O)C[C@H](O)CC[C@@](C)(O)[C@@H](OC(C)=O)/C=C/[C@@H]1C", "note": "[Isomer 1RS]", "values": [
      {"measurement": "times more active than FD-895", "setting": "[1]", "result": "~25", "unit": "times"},
      {"measurement": "IC50", "setting": "[1]", "result": "0.8 ± 0.05", "unit": "nM"}
    ]},
    {"smiles": "CC[C@H](OC)[C@@H](C)[C@H]1O[C@@H]1[C@@H](O)[C@H](C)/C=C/C=C(\\C)[C@H]1OC(=O)C[C@H](O)CC[C@@](C)(O)[C@@H](OC(C)=O)/C=C/[C@@H]1C", "note": "[Isomer 1SR]", "values": [
      {"measurement": "IC50", "setting": "[1]", "result": "3.7 ± 0.2", "unit": "nM"}
    ]},
    {"smiles": "Nc1nc(F)nc2c1ncn2[C@@H]1O[C@H](COP(=O)(O)O)[C@@H](O)[C@@H]1O", "note": "[F-Ara-A, Fludarabine phosphate]", "values": [
      {"measurement": "IC50", "setting": "[2]", "result": "> 10000", "unit": "nM"}
    ]},
    {"smiles": "CC[C@H](OC)[C@@H](C)[C@H]1O[C@@H]1[C@@H](O)[C@@H](C)/C=C/C=C(\\C)[C@H]1OC(=O)C[C@H](O)CC[C@@](C)(O)[C@@H](OC(C)=O)/C=C/[C@@H]1C", "note": "[Isomer 1SS]", "values": [
      {"measurement": "IC50", "setting": "[1]; Homo sapiens", "result": "23 ± 1.2", "unit": "nM"}
    ]},
    {"smiles": "Cn1c(CCCC(=O)O)nc2cc(N(CCCl)CCCl)ccc21", "note": "[Bendamustine]", "values": [
      {"measurement": "splicing inhibition of housekeeping gene GAPDH", "setting": "[3]", "result": "Neither FD-895, PLAD nor chemotherapy agents showed splicing inhibition"},
      {"measurement": "intron retention/splicing inhibition of DNAJB1", "setting": "[4]", "result": "did not show intron retention/splicing inhibition"}
    ]}
  ]
}
